Source: patent US20020028809A1 (SUNTORY LIMITED, priority 1999, published 2002)
Read-outs that look alike come from different tables or passages of the source.

Key:
[1] = biological target: T1, α4β2 subtype of nicotinic acetylcholine receptors (Rattus norvegicus, UniProt P09483+P12390); assay: Binding assays at α4β2 subtype of nicotinic acetylcholine receptors ([3H]-cytisine, rat brain membrane)
T1 construct: examined using rat brain membrane obtained from whole homogenized brain; from tissue; host or cells: whole brain of Fischer-344 male rats, membrane pellet
Excerpt: (§1) Methods for evaluating binding capabilities of the compounds at nicotinic acetylcholine receptors are different by subtypes of receptors. Binding capabilities of the compounds at α4β2 nicotinic acetylcholine receptors are examined using rat brain membrane obtained from whole homogenized brain, and determining the inhibiting rate of the compounds against [^3H]-cytisine binding to said brain membrane. Furthermore, the binding capabilities of the compounds at α1β1γδ nicotinic acetylcholine receptors are examined using homogenized rat muscle, and determining the inhibiting rate of the compounds against [^3H]-α-bungarotoxin binding to said muscle homogenate.
Binding assays at α4β2 Subtype of Nicotinic Acetylcholine Receptors
(1) Preparation of Rat Brain Membrane Containing α4β2 Subtype of Nicotinic Acetylcholine Receptors
Rats were housed in the breeding cage controlled of the room temperature at 23±1° C., and the humidity of 55±5% for 1 to 4 weeks. Rats (3 to 4 rats per a cage) were housed with lights on for 12 hours daily (from 7:00 to 19:00), and allowed free access to food and water.
Preparation of rat brain membrane containing α4β2 subtype of nicotinic acetylcholine receptors was performed as follow. That is, rat brains were isolated just after sacrificed by decapitation, washed with ice-cooled saline solution and then frozen at −80° C. with liquid nitrogen and stored till using. After thawing the frozen brain, the brain was homogenized in 10 volumes of ice-cooled buffer solution (50 mM of Tris-HCl, 120 mM of NaCl, 5 mM of KCl, 1 mM of MgCl2, 2mM of CaCl2; pH 7.4; 4° C.) using homogenizer (HG30, Hitachi Kohki Ltd.) for 30 seconds, and the homogenate were centrifuged under 1,000×G for 10 minutes at 4° C. The resulting supernatant was separated and the pellet was homogenized again with half volume of aforementioned prior buffer solution and centrifuged under the same conditions. Combined supernatant was further centrifuged under 40,000×G for 20 minutes at 4° C. The pellet was suspended in buffer solution and used for binding assays at receptors.
(2) Experiments of α4β2 Subtype of Nicotinic Acetylcholine Receptors Binding
Suspensions of membrane pellets containing 400-600 μg of protein were added to test tubes containing test compounds and [^3H]-cytisine (2 nM) in a final volume of 200 μl and incubated for 75 minutes in ice-cooled bath. The samples were isolated by vacuum filtration onto Whatman GF/B filters, which were prerinsed with 0.5% polyethylenimine just prior to sample filtration, using Brandel multi manifold cell harvester. The filters were rapidly washed with buffer solution (3×1 ml). The filters were counted in 3 ml of clearsol I (Nacalai Tesque Inc.).
Analyses of the experimental results were conducted using the Accufit Competition Program (Beckman Ltd.).

[2] = biological target: T2, α1β1γδ subtype of nicotinic acetylcholine receptors (Rattus norvegicus, UniProt P18916+P25108+P25109+P25110); assay: Binding assays at α1β1γδ subtype of nicotinic acetylcholine receptors ([3H]-α-bungarotoxin, rat muscle extract); conditions: for remaining activity at 100 µM / remaining activity at 1000 µM: read-out: control % of [3H]-α-Bgt binding
T2 construct: Native receptor, no construct: "Triton X100 (2% w/v) was added
Excerpt: as §1
Binding Assays at α1β1γδ Subtype of Nicotinic Acetylcholine Receptors
Affinity of the compounds of the present invention to α1βγδ subtype of nicotinic acetylcholine receptors was measured by the following method, which was modified method described by Garcha H. S., Thomas P., Spivak C.
(1) Preparation of Rat Skeletal Muscles Containing α1β1γδ Subtype of Nicotinic Acetylcholine Receptors
The substantially same animals described in the Biological Experiment 1 were used.
Isolation of α1β1γδ subtype of nicotinic acetylcholine receptors was performed as follow. That is, rat posterior skeletal muscles were isolated just after sacrificed by decapitation, washed with ice-cooled saline solution and then frozen at −80° C. with liquid nitrogen and stored till using. After thawing the frozen muscles, tissue was homogenized (40% w/v) with buffer solution [2.5 mM of sodium phosphate buffer (pH:7.2), 90 mM of NaCl, 2 mM of KCl, 1 mM of EDTA, 2 mM of benzamidine, 0.1 mM of benzethonium chloride, […], 0.01% of sodium azide] in Waring blender (Waring blender 34BL97; WARING PRODUCTS DIVISION DYNAMICS CORPORATION OF AMERICA) for 60 seconds. The homogenate were centrifuged under 20,000×G for 60 minutes at 4° C. The supernatant was separated and the resulting pellet was added to the same buffer (1.5 ml/g wet weight), and homogenized under the same conditions. Triton X100 (2% w/v) was added and the mixture was stirred for 3 hours at 4° C. The centrifugation at 100,000×G for 60 minutes at 4° C. yielded the rat muscle extract as supernatant. This was stored at 4° C. for up to 4 weeks, and used for binding assays at receptors.
(2) Experiments of α1β1γδSubtype of Nicotinic Acetylcholine Receptors Binding
Receptors binding experiments were performed as follow. That is, the extract of rat muscle containing 600-900 μg of protein was added to test tubes containing test compounds and incubated for 15 minutes at 37° C. Then, to this mixture was added 1 nM of [^3H]-α-bungarotoxin (α-Bgt) and further incubated for 2 hours. The samples were isolated by vacuum filtration onto Whatman GF/B filters, which were prerinsed with 0.5% polyethylenimine just prior to sample filtration, using Brandel multi manifold cell harvester. The filters were rapidly rinsed with washing solution (10 mM of KH2PO4, 150 mM of NaCl, pH 7.2, room temperature) (5×1 ml). The filters were counted in 3 ml of clearsol I (Nacalai Tesque Inc.). Determination of nonspecific binding was incubated in the presence of 1 μM α-Bgt.
In the receptor binding experiments, said buffer solution was added for adjusting the final concentration of BSA to be 0.05%.
Analyses of the experimental results were conducted by the same way as described in the Biological Experiment 1.

[3] = at 1 μM of test compound, rat brain membrane
[4] = at 10 μM of test compound, rat brain membrane

T1 sequence (P09483 31-630): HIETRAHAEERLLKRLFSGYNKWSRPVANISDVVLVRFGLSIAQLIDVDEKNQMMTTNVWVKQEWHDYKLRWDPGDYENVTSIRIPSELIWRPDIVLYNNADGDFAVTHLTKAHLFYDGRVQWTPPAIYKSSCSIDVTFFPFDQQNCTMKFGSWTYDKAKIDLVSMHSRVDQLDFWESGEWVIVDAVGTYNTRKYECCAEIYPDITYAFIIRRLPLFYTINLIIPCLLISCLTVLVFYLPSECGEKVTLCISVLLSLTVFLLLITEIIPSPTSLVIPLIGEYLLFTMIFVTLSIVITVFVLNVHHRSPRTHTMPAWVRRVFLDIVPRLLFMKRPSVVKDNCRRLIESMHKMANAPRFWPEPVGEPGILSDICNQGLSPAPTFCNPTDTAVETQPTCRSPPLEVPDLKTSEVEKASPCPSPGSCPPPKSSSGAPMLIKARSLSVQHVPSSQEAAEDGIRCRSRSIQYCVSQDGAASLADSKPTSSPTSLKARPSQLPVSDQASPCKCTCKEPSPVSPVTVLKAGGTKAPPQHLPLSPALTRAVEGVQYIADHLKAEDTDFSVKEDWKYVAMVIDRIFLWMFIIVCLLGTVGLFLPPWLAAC
T1 sequence (P12390 25-500): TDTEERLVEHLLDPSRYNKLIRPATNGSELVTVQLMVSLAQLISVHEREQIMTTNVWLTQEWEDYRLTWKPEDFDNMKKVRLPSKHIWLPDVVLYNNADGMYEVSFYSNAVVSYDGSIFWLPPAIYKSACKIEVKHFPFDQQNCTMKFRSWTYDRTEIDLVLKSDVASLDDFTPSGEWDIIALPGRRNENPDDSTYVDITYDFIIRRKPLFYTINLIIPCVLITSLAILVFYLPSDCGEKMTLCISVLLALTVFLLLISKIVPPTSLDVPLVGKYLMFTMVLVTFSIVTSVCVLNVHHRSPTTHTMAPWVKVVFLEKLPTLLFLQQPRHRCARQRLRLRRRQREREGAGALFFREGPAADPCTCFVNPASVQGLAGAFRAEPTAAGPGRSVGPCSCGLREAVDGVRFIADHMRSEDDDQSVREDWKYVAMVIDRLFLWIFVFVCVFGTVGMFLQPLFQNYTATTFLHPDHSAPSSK
T2 sequence (P25108 21-457): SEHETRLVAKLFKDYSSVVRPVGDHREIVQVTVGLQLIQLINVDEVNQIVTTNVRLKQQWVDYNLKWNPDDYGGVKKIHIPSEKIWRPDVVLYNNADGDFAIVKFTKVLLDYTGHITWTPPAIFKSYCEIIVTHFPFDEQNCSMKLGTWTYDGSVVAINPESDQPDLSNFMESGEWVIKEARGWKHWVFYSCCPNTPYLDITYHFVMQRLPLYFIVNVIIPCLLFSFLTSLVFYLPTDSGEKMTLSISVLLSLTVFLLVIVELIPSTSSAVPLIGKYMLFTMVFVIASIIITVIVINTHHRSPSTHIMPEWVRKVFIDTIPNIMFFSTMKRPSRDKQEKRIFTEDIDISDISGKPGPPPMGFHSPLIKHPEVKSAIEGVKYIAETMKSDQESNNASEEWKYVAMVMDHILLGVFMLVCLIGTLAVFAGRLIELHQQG
T2 sequence (P25110 22-517): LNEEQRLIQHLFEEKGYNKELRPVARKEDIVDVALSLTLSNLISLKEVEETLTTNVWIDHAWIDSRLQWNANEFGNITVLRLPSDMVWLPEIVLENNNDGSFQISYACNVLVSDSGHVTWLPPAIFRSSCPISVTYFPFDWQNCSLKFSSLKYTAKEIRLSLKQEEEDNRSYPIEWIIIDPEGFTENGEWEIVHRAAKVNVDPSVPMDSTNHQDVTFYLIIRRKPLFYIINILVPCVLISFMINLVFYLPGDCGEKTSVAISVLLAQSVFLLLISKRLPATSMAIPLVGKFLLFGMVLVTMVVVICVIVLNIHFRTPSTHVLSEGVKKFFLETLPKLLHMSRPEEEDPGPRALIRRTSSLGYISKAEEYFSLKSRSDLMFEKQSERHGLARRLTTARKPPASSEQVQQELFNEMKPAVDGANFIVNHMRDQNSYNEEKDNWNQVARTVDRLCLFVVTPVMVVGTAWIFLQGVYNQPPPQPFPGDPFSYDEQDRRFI
T2 sequence (P25109 24-501): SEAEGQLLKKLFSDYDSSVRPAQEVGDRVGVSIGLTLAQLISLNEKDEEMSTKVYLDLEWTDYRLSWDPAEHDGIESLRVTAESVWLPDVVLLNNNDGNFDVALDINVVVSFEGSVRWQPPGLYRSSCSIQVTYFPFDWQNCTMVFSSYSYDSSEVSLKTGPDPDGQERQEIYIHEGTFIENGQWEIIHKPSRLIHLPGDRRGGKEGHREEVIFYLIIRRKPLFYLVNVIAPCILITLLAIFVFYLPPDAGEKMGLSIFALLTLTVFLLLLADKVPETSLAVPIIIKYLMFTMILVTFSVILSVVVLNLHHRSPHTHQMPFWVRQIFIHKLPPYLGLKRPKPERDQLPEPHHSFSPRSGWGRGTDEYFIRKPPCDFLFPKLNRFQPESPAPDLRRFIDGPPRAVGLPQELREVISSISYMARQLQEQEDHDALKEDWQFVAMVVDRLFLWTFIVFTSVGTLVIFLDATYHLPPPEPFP

## N=c1ncc(-c2ccccc2)cn1Cc1ccc(Cl)nc1 [Compound 46, 1-(6-chloro-3-pyridyl)methyl-2-imino-5-phenyl-1,2-dihydropyrimidine]
[1]
  Ki: 273 nM
[2]
  remaining activity at 100 µM: 88%
  remaining activity at 1000 µM: 66%

## N=c1ccc([N+](=O)[O-])cn1Cc1ccc(Cl)nc1 [Compound 47, 1-(6-chloro-3-pyridyl)methyl-2-imino-5-nitro-1,2-dihydropyridine]
[1]
  Ki: 227 nM
[2]
  remaining activity at 100 µM: 93%
  remaining activity at 1000 µM: 73%

## Cc1ccc(Cn2ccccc2=N)cn1 [Compound 48, 2-imino-1-(6-methyl-3-pyridyl)methyl-1,2-dihydropyridine]
[1]
  Ki: 47.9 nM
[2]
  Ki: 56300 nM

## N=C1SCCN1Cc1cccnn1 [Compound 49, 2-imino-3-(3-pyridazinyl)methylthiazolidine]
[1]; [3]
  control % of [3H]-cytisine binding: (62%,
[1]; [4]
  control % of [3H]-cytisine binding: 16%)
[2]
  remaining activity at 100 µM: 18%
  remaining activity at 1000 µM: 14%

## Cc1nc(N)n(Cc2ccc(Cl)nc2)c1C [Compound 51, 2-amino-1-(6-chloro-3-pyridyl)methyl-4,5-dimethylimidazole]
[1]; [3]
  control % of [3H]-cytisine binding: (96%
[1]; [4]
  control % of [3H]-cytisine binding: 33%)
[2]
  remaining activity at 100 µM: 103%
  remaining activity at 1000 µM: 53%

## Nc1nccn1Cc1cncnc1 [Compound 52, 2-amino-1-(5-pyrimidyl)methylimidazole]
[1]
  Ki: 24.9 nM
[2]
  Ki: 302000 nM

## Cc1cn(Cc2ccc(Cl)nc2)c(N)n1 [Compound 53, 2-amino-1-(6-chloro-3-pyridyl)methyl-4-methylimidazole]
[1]
  Ki: 226 nM
[2]
  remaining activity at 100 µM: 98%
  remaining activity at 1000 µM: 56%

## Nc1nccn1Cc1cnc(Cl)c(Cl)c1 [Compound 54, 2-amino-1-(5,6-dichloro-3-pyridyl)methylimidazole]
[1]
  Ki: 9.72 nM
[2]
  remaining activity at 100 µM: 113%
  remaining activity at 1000 µM: 52%

## Nc1nccn1Cc1ccc(Cl)cc1 [Compound 58, 2-amino-i-(4-chlorobenzyl)imidazole]
[1]; [3]
  control % of [3H]-cytisine binding: (62%,
[1]; [4]
  control % of [3H]-cytisine binding: 16%)
[2]
  remaining activity at 100 µM: 62%
  remaining activity at 1000 µM: 37%

## N=c1sccn1Cc1ccc(Cl)c(Cl)c1 [Compound 60, 3-(3,4-dichlorobenzyl)-2-imino-2,3-dihydrothiazole]
[1]
  Ki: 31.9 nM
[2]
  Ki: 61300 nM

## N=c1sccn1Cc1cccc([N+](=O)[O-])c1 [Compound 61, 2-imino-3-(3-nitrobenzyl)-2,3-dihydrothiazole]
[1]
  Ki: 65.4 nM
[2]
  Ki: 219000 nM

## Cc1ccc(Cn2ccsc2=N)cc1 [Compound 63, 2-imino-3-(4-methylbenzyl)-2,3-dihydrothiazole]
[1]; rat brain membrane, [3H]-cytisine (2 nM), read-out: Affinities for receptors Ki α4β2
  Ki: 160 nM
[2]
  Ki: 364000 nM

## N=c1sccn1Cc1cccc(C(F)(F)F)c1 [Compound 64, 2-imino-3-(3-trifluoromethylbenzyl)-2,3-dihydrothiazole]
[1]; [3]
  control % of [3H]-cytisine binding: (60%,
[1]; [4]
  control % of [3H]-cytisine binding: 15%)
[2]
  remaining activity at 100 µM: 77%
  remaining activity at 1000 µM: 23%

## N#Cc1ccc(Cn2ccsc2=N)cc1 [Compound 65, 3-(4-cyanobenzyl)-2-imino-2,3-dihydrothiazole]
[1]
  Ki: 181 nM
[2]
  Ki: 311000 nM

## N=c1sccn1Cc1c[nH]c2ncccc12 [Compound 66]
[1]
  Ki: 16.1 nM
[2]
  Ki: 184000 nM
